In ChEMBL document CHEMBL1201862, “PubChem BioAssay data set” (2004):
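Values below derive from 48-hour exposures of cells grown in 96-well plates, with endpoints linearly interpolated between the two concentrations bracketing the appropriate inhibition level. GI50 marks 50% less growth.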 Calls of active or inactive are those of the source. Rule as the data show it: active = GI50 up to about 1.1 µM and inactive = higher.

Columns and labels:
Assay in all cases: inhibition of tumour cell growth, NCI panel, 48 h
U-251 = system: U-251
COLO 205 = system: COLO 205
EKVX = system: EKVX
ACHN = system: ACHN
A549 = system: A549
UACC-62 = system: UACC-62
KM12 = system: KM12
HCT-15 = system: HCT-15
SNB-19 = system: SNB-19
RPMI-8226 = system: RPMI-8226
CAKI-1 = system: CAKI-1
SN12C = system: SN12C
OVCAR-3 = system: OVCAR-3
K562 = system: K562
SW-620 = system: SW-620
A498 = system: A498
MOLT-4 = system: MOLT-4
SF-295 = system: SF-295
PC-3 = system: PC-3
MDA-N = system: MDA-N
SK-MEL-28 = system: SK-MEL-28
HOP-62 = system: HOP-62
SF-539 = system: SF-539
M14 = system: M14
SF-268 = system: SF-268
LOX IMVI = system: LOX IMVI
SK-OV-3 = system: SK-OV-3
SK-MEL-2 = system: SK-MEL-2
NCI-H226 = system: NCI-H226
NCI-H522 = system: NCI-H522
OVCAR-8 = system: OVCAR-8
T47D = system: T47D
NCI-H460 = system: NCI-H460
Malme-3M = system: Malme-3M
HT-29 = system: HT-29
HOP-92 = system: HOP-92
SR = system: SR
786-0 = system: 786-0
HCC 2998 = system: HCC 2998
HL-60 = system: HL-60
UACC-257 = system: UACC-257
OVCAR-5 = system: OVCAR-5
HCT-116 = system: HCT-116
SK-MEL-5 = system: SK-MEL-5
RXF 393 = system: RXF 393
UO-31 = system: UO-31
NCI-H23 = system: NCI-H23
DU-145 = system: DU-145
OVCAR-4 = system: OVCAR-4
MDA-MB-435 = system: MDA-MB-435
NCI/ADR-RES = system: NCI/ADR-RES
MDA-MB-231 = system: MDA-MB-231
CCRF-CEM = system: CCRF-CEM
Hs-578T = system: Hs-578T
SNB-75 = system: SNB-75
IGROV-1 = system: IGROV-1
MCF7 = system: MCF7
TK-10 = system: TK-10

With `Cc1cc2c(C(C)C)c(O)c(O)c(C=O)c2c(O)c1-c1c(C)cc2c(C(C)C)c(O)c(O)c(C=O)c2c1O` the GI50 (U-251) was 3.52 µM (inactive), the GI50 (COLO 205) was 4.35 µM (inactive) and the GI50 (EKVX) was 1.32 µM (inactive). The GI50 (ACHN) was 5.51 µM (inactive), the GI50 (A549) was 5.69 µM (inactive) and the GI50 (UACC-62) was 4.7 µM (inactive). For the same compound, the GI50 (KM12) was 2.07 µM (inactive), the GI50 (HCT-15) was 5.18 µM and the GI50 (SNB-19) was 7.24 µM (inactive). The GI50 (RPMI-8226) was 4.38 µM (inactive), the GI50 (CAKI-1) was 3.39 µM (inactive) and the GI50 (SN12C) was 6.14 µM (inactive). The GI50 (OVCAR-3) was 2.3 µM (inactive), the GI50 (K562) was 2.16 µM (inactive) and the GI50 (SW-620) was 7.06 µM (inactive). For the same compound, the GI50 (A498) was 4.47 µM (inactive), the GI50 (MOLT-4) was 2.24 µM (inactive) and the GI50 (SF-295) was 2.81 µM (inactive). The GI50 (PC-3) was 5.04 µM (inactive) and the GI50 (MDA-N) was 87.7 µM (inactive).

In the case of `CC1(C)CC(=O)C2=C(C1)OC1=C(CC(C)(C)CC1=O)C2c1ccccc1Cl` (stereo unspecified), the GI50 (SK-MEL-28) is reported as > 100 µM (inactive), the GI50 (HOP-62) is reported as 59.2 µM (inactive) and the GI50 (SF-539) is reported as 70.5 µM (inactive). The GI50 (M14) was > 100 µM (inactive), the GI50 (SF-268) was > 100 µM (inactive) and the GI50 (U-251) was > 100 µM (inactive). For the same compound, the GI50 (COLO 205) was > 100 µM (inactive), the GI50 (LOX IMVI) was > 100 µM (inactive) and the GI50 (SK-OV-3) was > 100 µM (inactive). The GI50 (SK-MEL-2) was > 100 µM (inactive), the GI50 (EKVX) was > 100 µM (inactive) and the GI50 (NCI-H226) was > 100 µM (inactive). For the same compound, the GI50 (NCI-H522) was > 100 µM (inactive), the GI50 (ACHN) was > 100 µM (inactive) and the GI50 (A549) was > 100 µM (inactive). The GI50 (OVCAR-8) was > 100 µM (inactive), the GI50 (T47D) was > 100 µM (inactive) and the GI50 (NCI-H460) was > 100 µM (inactive). The GI50 (UACC-62) was > 100 µM (inactive), the GI50 (HCT-15) was greater than 100 µM and the GI50 (SNB-19) was > 100 µM (inactive). The GI50 (Malme-3M) was > 100 µM (inactive), the GI50 (HT-29) was > 100 µM (inactive) and the GI50 (HOP-92) was > 100 µM (inactive). The GI50 (SR) was > 100 µM (inactive), the GI50 (786-0) was > 100 µM (inactive) and the GI50 (RPMI-8226) was > 100 µM (inactive). The GI50 (HCC 2998) was > 100 µM (inactive), the GI50 (HL-60) was > 100 µM (inactive) and the GI50 (CAKI-1) was > 100 µM (inactive). The GI50 (UACC-257) was > 100 µM (inactive), the GI50 (SN12C) was > 100 µM (inactive) and the GI50 (OVCAR-5) was > 100 µM (inactive). For the same compound, the GI50 (OVCAR-3) was > 100 µM (inactive), the GI50 (K562) was > 100 µM (inactive) and the GI50 (SW-620) was > 100 µM (inactive). The GI50 (A498) was > 100 µM (inactive), the GI50 (HCT-116) was > 100 µM (inactive) and the GI50 (MOLT-4) was > 100 µM (inactive). For the same compound, the GI50 (SK-MEL-5) was 43.5 µM (inactive), the GI50 (RXF 393) was > 100 µM (inactive) and the GI50 (UO-31) was 1.94 µM (inactive). The GI50 (NCI-H23) was > 100 µM (inactive), the GI50 (DU-145) was > 100 µM (inactive) and the GI50 (OVCAR-4) was > 100 µM (inactive). For the same compound, the GI50 (MDA-MB-435) was > 100 µM (inactive), the GI50 (SF-295) was > 100 µM (inactive) and the GI50 (NCI/ADR-RES) was > 100 µM (inactive). The GI50 (PC-3) was > 100 µM (inactive), the GI50 (MDA-MB-231) was 89.7 µM (inactive) and the GI50 (CCRF-CEM) was > 100 µM (inactive). The GI50 (Hs-578T) was > 100 µM (inactive), the GI50 (SNB-75) was > 100 µM (inactive) and the GI50 (IGROV-1) was > 100 µM (inactive).

In the case of `CCOC(=O)/C1=C(\C)N(Cc2ccccc2)C(=O)c2ccccc2C(=O)c2c(OC(C)=O)ccc(OC(C)=O)c21`, the GI50 (SK-MEL-28) is reported as > 100 µM (inactive), the GI50 (HOP-62) is reported as 40.6 µM (inactive) and the GI50 (SF-539) is reported as > 100 µM (inactive). The GI50 (SF-268) was 43.6 µM (inactive), the GI50 (U-251) was > 100 µM (inactive) and the GI50 (COLO 205) was 78.7 µM (inactive). The GI50 (LOX IMVI) was > 100 µM (inactive), the GI50 (SK-OV-3) was > 100 µM (inactive) and the GI50 (SK-MEL-2) was 97.5 µM (inactive). For the same compound, the GI50 (EKVX) was 18.3 µM (inactive), the GI50 (NCI-H522) was 34.9 µM (inactive) and the GI50 (ACHN) was > 100 µM (inactive). For the same compound, the GI50 (A549) was 36.4 µM (inactive), the GI50 (OVCAR-8) was 67.8 µM (inactive) and the GI50 (T47D) was > 100 µM (inactive). The GI50 (NCI-H460) was 39.4 µM (inactive), the GI50 (UACC-62) was 53.2 µM (inactive) and the GI50 (KM12) was 47 µM (inactive). For the same compound, the GI50 (MCF7) was 21.1 µM (inactive), the GI50 (HCT-15) was 69.3 µM and the GI50 (SNB-19) was > 100 µM (inactive). For the same compound, the GI50 (Malme-3M) was 69.8 µM (inactive), the GI50 (HT-29) was 40.2 µM (inactive) and the GI50 (HOP-92) was 12.7 µM (inactive). The GI50 (SR) was 20.5 µM (inactive), the GI50 (786-0) was > 100 µM (inactive) and the GI50 (RPMI-8226) was 18.9 µM (inactive). For the same compound, the GI50 (HCC 2998) was 7.6 µM (inactive), the GI50 (HL-60) was 29.9 µM (inactive) and the GI50 (CAKI-1) was 72.3 µM (inactive). For the same compound, the GI50 (UACC-257) was 61.9 µM (inactive), the GI50 (SN12C) was > 100 µM (inactive) and the GI50 (OVCAR-5) was 41.7 µM (inactive). For the same compound, the GI50 (OVCAR-3) was 23.1 µM (inactive), the GI50 (K562) was 42.9 µM (inactive) and the GI50 (SW-620) was 65.3 µM (inactive). For the same compound, the GI50 (A498) was > 100 µM (inactive), the GI50 (MOLT-4) was 59.7 µM (inactive) and the GI50 (SK-MEL-5) was 33.3 µM (inactive). For the same compound, the GI50 (RXF 393) was 33.2 µM (inactive), the GI50 (UO-31) was > 100 µM (inactive) and the GI50 (TK-10) was 58.3 µM (inactive). The GI50 (OVCAR-4) was 24.9 µM (inactive), the GI50 (MDA-MB-435) was 47.6 µM (inactive) and the GI50 (SF-295) was 29 µM (inactive). The GI50 (NCI/ADR-RES) was 31.8 µM (inactive), the GI50 (MDA-MB-231) was > 100 µM (inactive) and the GI50 (CCRF-CEM) was 40.8 µM (inactive). The GI50 (Hs-578T) was 33.5 µM (inactive), the GI50 (SNB-75) was > 100 µM (inactive) and the GI50 (IGROV-1) was 21.9 µM (inactive). The GI50 (MDA-N) was 36 µM (inactive).
